This is an account of results in patent publication US9360486B2, “Allergen fragments” (Biomay AG, priority 2007, dated 2016).

In the assay the test system is Amb a 1-specific T cell lines (TCL). Briefly: T cell epitope mapping of Amb a 1.3: proliferation (3H-thymidine uptake) of TCL stimulated with synthetic peptides. Particulars: for No. positive patients SI > 3 / No. positive patients SI > 5 / % (positive patients SI > 3) / % (positive patients SI > 5): TCL from 48 ragweed pollen-allergic patients, peptide 5 μg/ml; for No. positive patients SI > 3 / No. positive patients SI > 5: 3H-thymidine uptake after 48 hrs; for No. positive patients SI > 3 / % (positive patients SI > 3): stimulation index > 3; for No. positive patients SI > 5 / % (positive patients SI > 5): stimulation index > 5; for T cell activating region recognized by % of patients: classes of prevalence referring to SI>5, 48 TCL. The class given is cell-based, human. The text has this: The T cell response to Amb a 1 was characterized in detail using the established in vitro culture system (Jahn-Schmid et al., J. Immunol. 169: 6005-11, 2002; Jahn-Schmid et al., J. Allergy Clin. Immunol., 115: 399-404, 2005). In total, 85 clinically well-defined patients (75 from Vienna/10 from Milano) with typical case history, positive skin prick test and CAP/RAST tests for ragweed extract were included.
Peripheral blood mononuclear cells (PBMC) were isolated from heparinized blood of allergic patients by Ficoll density gradient centrifugation. To generate allergen-specific T cell lines (TCL) and T cell clones (TCC), 1.5×10^6 PBMC were stimulated with optimal doses of ragweed or mugwort extract (4 μg/ml) or rAmb a 1.3 (10 μg/ml) in 24-well flat-bottomed culture plates (Costar, USA). After 5 days human rIL-2 (10 U/ml, Boehringer, Mannheim, Germany) were added and cultures were continued for additional 7 days. Then, T cell blasts were isolated by density centrifugation. The majority of T cell blasts was further expanded with IL-2 and irradiated PBMC. A small number of T cell blasts were used to establish monoclonal T cell cultures by limiting dilution: 0.3 T cells/well were seeded into 96 well round bottom plates (Nunclone) in the presence of 2×10^5 irradiated (60 Gy) PBMC, 0.25% v/v PHA (Gibco, USA) and rIL-2 (4 U/well) in the medium mentioned above. After 14-21 days, growing microcultures were expanded at weekly intervals with irradiated PBMC and rIL-2. The specificity of TCC was assessed in proliferation assays using irradiated allogeneic or HLA-matched PBMC or irradiated EBV-transformed allogeneic B-cells and 5 μg/ml Amb a 1.3. After 48 hours, cellular uptake of tritiated (^3H)-thymidine was performed to measure proliferation in counts per minute (cpm). When the stimulation index (SI; ratio between cpm obtained in cultures containing TCC plus autologous APC plus antigen, and cpm obtained in cultures containing TCC and APC alone) was >10, responses were considered as positive. Allergen-specific TCC were expanded by alternating turns of stimulation with autologous irradiated APC and allergen or with allogeneic feeder cells and rIL-2.
Amb a 1-specific TCL and TCC were used to identify T cell epitopes of Amb a 1.3. T cell cultures were stimulated with a panel of 121 synthetic 12-mer peptides and one 13-mer representing the C-terminal peptide of Amb a 1.3 (Pepset, Biotrend, Germany). Peptides had been synthesized according to the Amb a 1.3 amino acid sequence and overlapped for 9 amino acid residues with the neighbouring peptides (Table 1). Peptides were used at a concentration of 5 μg/ml for stimulation and proliferation of T cell cultures was determined after 48 hrs by ^3H-thymidine-uptake. Because of the frequently observed high background caused by auto-reactivity in TCL, the mean of the cpm observed with the ten least stimulating peptides (none of the peptides was toxic) was used as negative control in calculations of SI. Throughout this manuscript, a peptide comprised one T cell epitope when the stimulation index was at least 3.0.
T cell epitope mapping of Amb a 1.3 was performed evaluating 48 TCL from different patients ([…]), which had been initiated with ragweed extract (containing the natural allergen) or rAmb a 1.3 (Table 2). TCL induced with either ragweed extract or rAmb a 1.3 from the same individual recognized similar T cell epitopes (Table 2; FIG. 7). […] Therefore, their data were combined for further analysis (Table 3). Typical for many inhalant allergens, multiple T cell activating regions were detected in Amb a 1.3. The number of peptides recognized by T cells from a single individual ranged from 2 to maximum 60 peptides with a mean of 17.8 peptides (median=16/for SI>3; resp. 0-36/11.9/12 for SI>5) (see Table 3). In total, 26 relevant (i.e. recognized by ≧10% of patients studied) T cell activating regions comprising 12-18 aa were identified. […]

As to “ISNCKFTQQSKA (Amb a 1 fragment) [Peptide 70]”, the “No. positive patients SI > 3” value was 1, the “No. positive patients SI > 5” value is reported as 1, the “% (positive patients SI > 3)” value was 2.1% and the “% (positive patients SI > 5)” value came to 2.1%.
In the case of “KADWENNRQALA (Amb a 1 fragment) [Peptide 12]”, the “reactivity with T cells isolated from allergic individuals” value (“reactivity with T cells isolated” below) is “reactivity with T cells”, the “No. positive patients SI > 3” value came out at 5, the “No. positive patients SI > 5” value is 1 and the “% (positive patients SI > 3)” value is 10.4%. For the same sequence, the “% (positive patients SI > 5)” value was determined as 2.1%.
As to “KGMLATVAFNMF (Amb a 1 fragment) [Peptide 78]”, the “reactivity with T cells isolated” value is listed as “reactivity with T cells”, the “No. positive patients SI > 3” value was determined as 11, the “No. positive patients SI > 5” value was 6 and the “% (positive patients SI > 3)” value came out at 22.9%. Moreover, the “% (positive patients SI > 5)” value is 12.5% and the “T cell activating region recognized by % of patients” value is “recognized by 12.5%”.
On to “KNDMVINLNQEL (Amb a 1 fragment) [Peptide 33]”, for which the “reactivity with T cells isolated” value is on record as “reactivity with T cells”, the “No. positive patients SI > 3” value was determined as 15, the “No. positive patients SI > 5” value was 13 and the “% (positive patients SI > 3)” value is on record as 31.3%. The “% (positive patients SI > 5)” value was 27.1%.
As to “KNDMVINLNQELVVN (Amb a 1 fragment) [Peptide 33-34]”, the “reactivity with T cells isolated” value is “reactivity with T cells” and the “T cell activating region recognized by % of patients” value is on record as “recognized by 27.1%”.
Regarding “KNIIIHNINIHD (Amb a 1 fragment) [Peptide 46]”, the “reactivity with T cells isolated” value was “reactivity with T cells”, the “No. positive patients SI > 3” value was determined as 10, the “No. positive patients SI > 5” value is on record as 8 and the “% (positive patients SI > 3)” value stood at 20.8%. The “% (positive patients SI > 5)” value was 16.7%.
Consider “KNIIIHNINIHDVKVLPG (Amb a 1 fragment) [Peptide 46-48]”, for which the “reactivity with T cells isolated” value was “reactivity with T cells” and the “T cell activating region recognized by % of patients” value is “recognized by 20.8%”.
Take “KNVLARTGTGAA (Amb a 1 fragment) [Peptide 100]”: the “reactivity with T cells isolated” value was “reactivity with T cells”, the “No. positive patients SI > 3” value came to 6, the “No. positive patients SI > 5” value is recorded as 5 and the “% (positive patients SI > 3)” value was 12.5%. In addition, the “% (positive patients SI > 5)” value is recorded as 10.4% and the “T cell activating region recognized by % of patients” value is reported as “recognized by 10.4%”.
Take “KSNDGPPILRQA (Amb a 1 fragment) [Peptide 53]”: the “reactivity with T cells isolated” value is “reactivity with T cells”, the “No. positive patients SI > 3” value was 5, the “No. positive patients SI > 5” value turned out to be 0 and the “% (positive patients SI > 3)” value stood at 10.4%. Further, the “% (positive patients SI > 5)” value was determined as 0.0%.
For the sequence “LARTGTGAAESM (Amb a 1 fragment) [Peptide 101]”, the “reactivity with T cells isolated” value is “reactivity with T cells”, the “No. positive patients SI > 3” value is listed as 10, the “No. positive patients SI > 5” value is 7 and the “% (positive patients SI > 3)” value was 20.8%. The “% (positive patients SI > 5)” value came out at 14.6%.
Take “LARTGTGAAESMAWN (Amb a 1 fragment) [101/102]”: the “reactivity with T cells isolated” value is “reactivity with T cells” and the “T cell activating region recognized by % of patients” value is on record as “recognized by 14.6%”.
For “LATVAFNMFTDN (Amb a 1 fragment) [Peptide 79]”, the “reactivity with T cells isolated” value is “reactivity with T cells”, the “No. positive patients SI > 3” value was 5, the “No. positive patients SI > 5” value came out at 2 and the “% (positive patients SI > 3)” value stood at 10.4%. In addition, the “% (positive patients SI > 5)” value is given as 4.2%.
